From ChEMBL document CHEMBL1201862, “PubChem BioAssay data set” (2004)
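Following 48 hours of exposure in 96-well plates, responses at five concentrations were used to interpolate endpoints linearly. At the GI50, growth is halved.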 Active and inactive are the calls of the source. Cut-off read from the data, not from the text of the source: active = GI50 up to about 1.1 µM and inactive = higher.

Key:
Test in all cases: growth of human tumour cells (NCI), 48 h
HOP-92 = test system: HOP-92
MDA-MB-231 = test system: MDA-MB-231
SNB-75 = test system: SNB-75
ACHN = test system: ACHN
PC-3 = test system: PC-3
DU-145 = test system: DU-145
K562 = test system: K562
OVCAR-5 = test system: OVCAR-5
Hs-578T = test system: Hs-578T
SK-MEL-5 = test system: SK-MEL-5
NCI/ADR-RES = test system: NCI/ADR-RES
HT-29 = test system: HT-29
MCF7 = test system: MCF7
SN12C = test system: SN12C
KM12 = test system: KM12
HL-60 = test system: HL-60
COLO 205 = test system: COLO 205
HCT-116 = test system: HCT-116
TK-10 = test system: TK-10

SMILES | GI50 (HOP-92) | GI50 (MDA-MB-231) | GI50 (SNB-75) | GI50 (ACHN) | GI50 (PC-3) | GI50 (DU-145) | GI50 (K562) | GI50 (OVCAR-5) | GI50 (Hs-578T) | GI50 (SK-MEL-5) | GI50 (NCI/ADR-RES) | GI50 (HT-29) | GI50 (MCF7) | GI50 (SN12C) | GI50 (KM12) | GI50 (HL-60) | GI50 (COLO 205) | GI50 (HCT-116) | GI50 (TK-10)
CC(=O)OC(=C(C#N)C#N)c1nccnc1C(C)=O | > 20 µM (inactive) | > 20 µM (inactive) | 3.96 µM (inactive) | > 20 µM (inactive) | > 20 µM (inactive) | > 20 µM (inactive) | 11 µM (inactive) | > 20 µM (inactive) | 4.44 µM (inactive) | 6.32 µM (inactive) | > 20 µM (inactive) | 4.2 µM (inactive) | > 20 µM (inactive) | > 20 µM (inactive) | 4.98 µM (inactive) | 7.01 µM (inactive) | 4.55 µM (inactive) |  | 
Cc1cccc2c(N)c3cccc(C(=O)NCC[N+](C)(C)Cc4ccc([N+](=O)[O-])s4)c3nc12 | 16 µM (inactive) | 4.42 µM (inactive) | 17.2 µM (inactive) | 2.69 µM (inactive) | 7 µM (inactive) | 9.1 µM (inactive) | 2.88 µM (inactive) | 11.9 µM (inactive) | 8.51 µM (inactive) | 11.6 µM (inactive) | 43.8 µM (inactive) | 4.07 µM (inactive) | 2.23 µM (inactive) | 0.424 µM (active) | 9.06 µM (inactive) |  | 4.9 µM (inactive) | 3.83 µM (inactive) | 20.4 µM (inactive)
CC(C)(C)OC(=O)NCCCCC1NC(=O)[C@@H]2Cc3c([nH]c4ccccc34)C(c3ccccc3)N2C1=O (some centres not stated) | 22.8 µM (inactive) | 27.4 µM (inactive) |  | 43.8 µM (inactive) | 33.8 µM (inactive) | 49.2 µM (inactive) | 33.4 µM (inactive) | 53.8 µM (inactive) | 12.1 µM (inactive) | 27.6 µM (inactive) | 35.1 µM (inactive) | 25.6 µM (inactive) | 35.2 µM (inactive) | 28.8 µM (inactive) | 18.9 µM (inactive) | 21.5 µM (inactive) | 21.1 µM (inactive) | 29.7 µM (inactive) | 35.2 µM (inactive)
Cc1cc(C)c(C#N)c(SC(=S)NC(=O)c2ccccc2)n1 | > 100 µM (inactive) | > 100 µM (inactive) | 1.53 µM (inactive) | > 100 µM (inactive) | > 100 µM (inactive) | > 100 µM (inactive) | > 100 µM (inactive) | > 100 µM (inactive) | > 100 µM (inactive) | > 100 µM (inactive) | > 100 µM (inactive) | > 100 µM (inactive) | > 100 µM (inactive) | > 100 µM (inactive) | > 100 µM (inactive) |  | > 100 µM (inactive) | > 100 µM (inactive) | > 100 µM (inactive)
O=Cc1ccc(-c2cc(C=O)c(-c3cccs3)[nH]2)s1 | 32.7 µM (inactive) | 29.6 µM (inactive) | 17.1 µM (inactive) | 41.4 µM (inactive) | 35.6 µM (inactive) | 42.6 µM (inactive) | 25.9 µM (inactive) | > 75 µM (inactive) | 23.4 µM (inactive) | 23 µM (inactive) | 26.7 µM (inactive) | 25.1 µM (inactive) | 19.4 µM (inactive) | 53.6 µM (inactive) | 25.8 µM (inactive) |  | 25.1 µM (inactive) | 22.8 µM (inactive) | 24.4 µM (inactive)
CCn1c(-c2ccc(/N=N/Nc3ccc(-c4n[nH]c(=S)n4CC)cc3)cc2)n[nH]c1=S | 2.79 µM (inactive) | 4.2 µM (inactive) | 2.79 µM (inactive) | 2.36 µM (inactive) | 2.75 µM (inactive) | 2.87 µM (inactive) | 2.67 µM (inactive) |  | 3.15 µM (inactive) | 1.49 µM (inactive) | 28.8 µM (inactive) | 3.55 µM (inactive) | 3.33 µM (inactive) | 3.02 µM (inactive) | 2.44 µM (inactive) | 2.93 µM (inactive) | 2.69 µM (inactive) | 3.55 µM (inactive) | 4.92 µM (inactive)
O=C(Nc1ccc(N2C(=O)CSC2c2ccccc2O)cc1)c1ccc(N2C(=O)CSC2c2ccccc2O)cc1 (configuration not stated) | 26.7 µM (inactive) | 44 µM (inactive) | 27.7 µM (inactive) | 35.6 µM (inactive) | 43.3 µM (inactive) | > 100 µM (inactive) | > 100 µM (inactive) | 83.6 µM (inactive) | 71.9 µM (inactive) | 77.4 µM (inactive) | > 100 µM (inactive) | > 100 µM (inactive) | 46.3 µM (inactive) | > 100 µM (inactive) | > 100 µM (inactive) |  | > 100 µM (inactive) | 88.3 µM (inactive) | 74 µM (inactive)
CSc1nc(-c2ccccc2)[nH]c(=O)n1 | > 100 µM (inactive) | > 100 µM (inactive) |  | > 100 µM (inactive) | > 100 µM (inactive) | > 100 µM (inactive) |  | > 100 µM (inactive) | > 100 µM (inactive) | > 100 µM (inactive) | > 100 µM (inactive) | > 100 µM (inactive) | > 100 µM (inactive) | > 100 µM (inactive) | > 100 µM (inactive) | 54.5 µM (inactive) | > 100 µM (inactive) | > 100 µM (inactive) | > 100 µM (inactive)
COc1ccc(/C=N/n2c(Cc3ccccc3)n[nH]c2=O)c(OC)c1 | 24.2 µM (inactive) | 36.7 µM (inactive) | 9.71 µM (inactive) | 30.4 µM (inactive) | > 100 µM (inactive) | > 100 µM (inactive) | > 100 µM (inactive) | 49.1 µM (inactive) | 11.2 µM (inactive) | > 71.4 µM (inactive) | 21.5 µM (inactive) | 19.5 µM (inactive) | > 100 µM (inactive) | > 100 µM (inactive) | > 100 µM (inactive) |  | > 31.6 µM (inactive) | 26.2 µM (inactive) | 27.3 µM (inactive)
O=C1NC(N2CCCC(CO)C2)=N/C1=C\c1ccccc1 (configuration not stated) | > 100 µM (inactive) | > 100 µM (inactive) | > 100 µM (inactive) | > 100 µM (inactive) | > 100 µM (inactive) | > 100 µM (inactive) |  | > 100 µM (inactive) | > 100 µM (inactive) | > 100 µM (inactive) | > 100 µM (inactive) | > 100 µM (inactive) | > 100 µM (inactive) | > 100 µM (inactive) | > 100 µM (inactive) | > 100 µM (inactive) | > 100 µM (inactive) | > 100 µM (inactive) | > 100 µM (inactive)
CC1(C)CC(=O)C(CC(C(=O)C(=O)Nc2cc(C(F)(F)F)ccc2Cl)C(=O)c2ccco2)C(=O)C1 (configuration not stated) | > 100 µM (inactive) | > 100 µM (inactive) |  | > 100 µM (inactive) | > 100 µM (inactive) | > 100 µM (inactive) | > 100 µM (inactive) | > 100 µM (inactive) | > 100 µM (inactive) | > 100 µM (inactive) | > 100 µM (inactive) | > 100 µM (inactive) | > 100 µM (inactive) | > 100 µM (inactive) | > 100 µM (inactive) | > 100 µM (inactive) | > 100 µM (inactive) | > 100 µM (inactive) | > 100 µM (inactive)
CCOC(=O)C(C)NC(=O)C(C)NC(=O)C(C)NC(=O)C(C)NC(=O)C(C)NC(=O)OCc1ccccc1 (configuration not stated) |  | > 100 µM (inactive) | 78.3 µM (inactive) | > 100 µM (inactive) | > 100 µM (inactive) | > 100 µM (inactive) | > 100 µM (inactive) | > 100 µM (inactive) | > 100 µM (inactive) | > 100 µM (inactive) | > 100 µM (inactive) | > 100 µM (inactive) | > 100 µM (inactive) | > 100 µM (inactive) | > 100 µM (inactive) | > 100 µM (inactive) | > 100 µM (inactive) | > 100 µM (inactive) | > 100 µM (inactive)
COc1cccc([C@@H]2C/C(=N\NC(=O)C(=O)N[C@@H](C)c3ccccc3)c3cc4c(cc3N2)OCO4)c1 | > 100 µM (inactive) | 67.5 µM (inactive) | 22.5 µM (inactive) | > 100 µM (inactive) | 98.6 µM (inactive) | > 100 µM (inactive) | 13.2 µM (inactive) | > 100 µM (inactive) | 19.7 µM (inactive) | 3.06 µM (inactive) | 13.9 µM (inactive) |  | 8.32 µM (inactive) | 42 µM (inactive) | 6.89 µM (inactive) |  | 25.5 µM (inactive) | 22.4 µM (inactive) | > 100 µM (inactive)
COC1=N[C@H](C(C)C)C(OC)=N[C@H]1Cc1ccc(C[C@@H]2N=C(OC)[C@@H](C(C)C)N=C2OC)s1 | > 100 µM (inactive) | 27.6 µM (inactive) | > 100 µM (inactive) | 29.4 µM (inactive) | 21.3 µM (inactive) | 33.2 µM (inactive) | 32.4 µM (inactive) | 17.5 µM (inactive) | 88.3 µM (inactive) | 20.8 µM (inactive) | 52.6 µM (inactive) | 26.2 µM (inactive) | 20.3 µM (inactive) | 43.3 µM (inactive) | 38.6 µM (inactive) |  | 22.1 µM (inactive) | 31 µM (inactive) | > 100 µM (inactive)
CC1(C)C2CCC(=O)C1C(OCc1ccccc1)C2 (configuration not stated) |  | > 100 µM (inactive) | > 100 µM (inactive) | > 100 µM (inactive) | > 100 µM (inactive) | > 100 µM (inactive) | 96.4 µM (inactive) | > 100 µM (inactive) | > 100 µM (inactive) | 17.4 µM (inactive) | > 100 µM (inactive) | > 100 µM (inactive) | > 100 µM (inactive) | > 100 µM (inactive) | > 100 µM (inactive) | 67.3 µM (inactive) | > 100 µM (inactive) | > 100 µM (inactive) | > 100 µM (inactive)
